Legend:
Format in all cases: biochemical
Details in all cases: Caliper assay at 1 mM ATP
[1] = target: JAK1 (Homo sapiens (Human), UniProt P23458); assay: JAK Caliper Enzyme Assay at 1 mM ATP (JAK1)
[2] = target: JAK3 (Homo sapiens (Human), UniProt P52333); assay: JAK Caliper Enzyme Assay at 1 mM ATP (JAK3)
[3] = target: TYK2 (Homo sapiens (Human), UniProt P29597); assay: JAK Caliper Enzyme Assay at 1 mM ATP (TYK2)
[4] = target: JAK2 (Homo sapiens (Human), UniProt O60674); assay: JAK Caliper Enzyme Assay at 1 mM ATP (JAK2)
Sequence of JAK2 (O60674 whole entry, species assumed): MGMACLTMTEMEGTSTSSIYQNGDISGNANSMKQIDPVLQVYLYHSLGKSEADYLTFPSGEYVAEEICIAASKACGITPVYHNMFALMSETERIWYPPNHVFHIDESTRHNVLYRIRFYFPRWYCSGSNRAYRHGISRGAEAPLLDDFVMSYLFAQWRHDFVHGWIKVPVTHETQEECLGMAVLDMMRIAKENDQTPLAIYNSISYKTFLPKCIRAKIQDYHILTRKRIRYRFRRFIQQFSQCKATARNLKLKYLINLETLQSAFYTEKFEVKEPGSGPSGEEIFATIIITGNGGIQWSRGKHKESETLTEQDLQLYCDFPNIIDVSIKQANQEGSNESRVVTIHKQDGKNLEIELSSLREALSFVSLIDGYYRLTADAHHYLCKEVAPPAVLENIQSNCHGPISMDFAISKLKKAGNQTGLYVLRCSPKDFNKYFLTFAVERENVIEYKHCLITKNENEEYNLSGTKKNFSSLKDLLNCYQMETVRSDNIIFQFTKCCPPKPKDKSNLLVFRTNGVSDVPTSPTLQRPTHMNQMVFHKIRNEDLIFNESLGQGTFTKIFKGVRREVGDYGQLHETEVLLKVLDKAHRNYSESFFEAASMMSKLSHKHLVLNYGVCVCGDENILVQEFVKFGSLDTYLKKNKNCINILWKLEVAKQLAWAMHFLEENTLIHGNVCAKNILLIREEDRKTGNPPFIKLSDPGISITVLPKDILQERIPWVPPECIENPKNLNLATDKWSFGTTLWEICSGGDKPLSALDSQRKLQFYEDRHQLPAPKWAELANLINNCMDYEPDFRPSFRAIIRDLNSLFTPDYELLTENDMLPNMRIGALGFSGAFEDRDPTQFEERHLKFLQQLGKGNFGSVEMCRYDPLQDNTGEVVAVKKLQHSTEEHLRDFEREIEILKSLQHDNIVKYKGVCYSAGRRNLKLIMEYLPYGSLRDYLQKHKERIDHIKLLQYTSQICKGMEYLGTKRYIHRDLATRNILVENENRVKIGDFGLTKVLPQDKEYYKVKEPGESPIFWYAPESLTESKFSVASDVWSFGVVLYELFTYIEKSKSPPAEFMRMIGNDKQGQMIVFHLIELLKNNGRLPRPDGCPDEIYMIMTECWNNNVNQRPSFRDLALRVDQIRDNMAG
Description: JAK Caliper Enzyme Assay at 1 mM ATP
Test article was solubilized in dimethyl sulfoxide (DMSO) to a stock concentration of 30 mM. An 11-point half log dilution series was created in DMSO with a top concentration of 600 μM. […] The compound plates were diluted 1 to 60 resulting in a top final assay compound concentration of 10 μM and a 2% DMSO concentration.
Test article and assay controls were added to a 384-well plate. Reaction mixtures contained 20 mM HEPES, pH 7.4, 10 mM magnesium chloride, 0.01% bovine serum albumin (BSA), 0.0005% Tween 20, 1 mM ATP and 1 μM peptide substrate. […] Enzyme concentrations and incubation times were optimized for each new enzyme preps and were modified slightly over time to ensure 20%-30% phosphorylation. The assays were stopped with a final concentration of 10 mM EDTA, 0.1% Coating Reagent and 100 mM HEPES, pH=7.4. The assay plates were placed on a Caliper Life Science Lab Chip 3000 (LC3000) instrument, and each well was sampled using appropriate separation conditions to measure the unphosphorylated and phosphorylated peptide.

Sequence of TYK2 (P29597 whole entry, species assumed): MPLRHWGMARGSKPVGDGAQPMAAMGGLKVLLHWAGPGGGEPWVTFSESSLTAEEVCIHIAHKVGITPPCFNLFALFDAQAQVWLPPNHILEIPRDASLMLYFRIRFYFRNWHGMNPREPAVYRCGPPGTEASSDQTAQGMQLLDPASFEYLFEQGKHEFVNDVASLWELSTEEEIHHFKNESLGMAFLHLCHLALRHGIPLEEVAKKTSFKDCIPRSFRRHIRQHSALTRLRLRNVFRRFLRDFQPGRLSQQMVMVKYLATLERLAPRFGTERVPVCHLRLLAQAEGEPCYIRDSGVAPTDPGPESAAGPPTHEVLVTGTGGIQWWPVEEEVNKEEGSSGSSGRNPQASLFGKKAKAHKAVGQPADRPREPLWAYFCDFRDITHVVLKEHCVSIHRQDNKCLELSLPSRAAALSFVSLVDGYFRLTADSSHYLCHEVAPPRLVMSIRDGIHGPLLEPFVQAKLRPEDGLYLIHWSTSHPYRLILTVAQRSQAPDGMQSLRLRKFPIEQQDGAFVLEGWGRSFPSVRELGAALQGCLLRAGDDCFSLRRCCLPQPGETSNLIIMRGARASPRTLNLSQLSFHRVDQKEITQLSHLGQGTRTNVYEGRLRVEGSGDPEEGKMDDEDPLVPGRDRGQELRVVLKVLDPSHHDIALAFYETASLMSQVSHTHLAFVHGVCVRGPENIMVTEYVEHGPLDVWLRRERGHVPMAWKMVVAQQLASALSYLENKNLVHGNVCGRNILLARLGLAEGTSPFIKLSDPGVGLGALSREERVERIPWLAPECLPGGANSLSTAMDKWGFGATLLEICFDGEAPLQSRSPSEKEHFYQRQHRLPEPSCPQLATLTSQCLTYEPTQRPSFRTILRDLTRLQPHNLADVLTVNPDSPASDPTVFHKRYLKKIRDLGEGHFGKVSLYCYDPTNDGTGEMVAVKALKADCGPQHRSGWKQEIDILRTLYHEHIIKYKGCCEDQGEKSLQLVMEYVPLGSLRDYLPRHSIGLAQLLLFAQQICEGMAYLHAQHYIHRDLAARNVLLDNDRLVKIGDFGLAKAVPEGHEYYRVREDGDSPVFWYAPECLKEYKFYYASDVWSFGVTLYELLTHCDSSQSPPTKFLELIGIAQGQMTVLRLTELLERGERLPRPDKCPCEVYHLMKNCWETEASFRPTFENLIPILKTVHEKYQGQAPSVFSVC
Sequence of JAK1 (P23458 whole entry, species assumed): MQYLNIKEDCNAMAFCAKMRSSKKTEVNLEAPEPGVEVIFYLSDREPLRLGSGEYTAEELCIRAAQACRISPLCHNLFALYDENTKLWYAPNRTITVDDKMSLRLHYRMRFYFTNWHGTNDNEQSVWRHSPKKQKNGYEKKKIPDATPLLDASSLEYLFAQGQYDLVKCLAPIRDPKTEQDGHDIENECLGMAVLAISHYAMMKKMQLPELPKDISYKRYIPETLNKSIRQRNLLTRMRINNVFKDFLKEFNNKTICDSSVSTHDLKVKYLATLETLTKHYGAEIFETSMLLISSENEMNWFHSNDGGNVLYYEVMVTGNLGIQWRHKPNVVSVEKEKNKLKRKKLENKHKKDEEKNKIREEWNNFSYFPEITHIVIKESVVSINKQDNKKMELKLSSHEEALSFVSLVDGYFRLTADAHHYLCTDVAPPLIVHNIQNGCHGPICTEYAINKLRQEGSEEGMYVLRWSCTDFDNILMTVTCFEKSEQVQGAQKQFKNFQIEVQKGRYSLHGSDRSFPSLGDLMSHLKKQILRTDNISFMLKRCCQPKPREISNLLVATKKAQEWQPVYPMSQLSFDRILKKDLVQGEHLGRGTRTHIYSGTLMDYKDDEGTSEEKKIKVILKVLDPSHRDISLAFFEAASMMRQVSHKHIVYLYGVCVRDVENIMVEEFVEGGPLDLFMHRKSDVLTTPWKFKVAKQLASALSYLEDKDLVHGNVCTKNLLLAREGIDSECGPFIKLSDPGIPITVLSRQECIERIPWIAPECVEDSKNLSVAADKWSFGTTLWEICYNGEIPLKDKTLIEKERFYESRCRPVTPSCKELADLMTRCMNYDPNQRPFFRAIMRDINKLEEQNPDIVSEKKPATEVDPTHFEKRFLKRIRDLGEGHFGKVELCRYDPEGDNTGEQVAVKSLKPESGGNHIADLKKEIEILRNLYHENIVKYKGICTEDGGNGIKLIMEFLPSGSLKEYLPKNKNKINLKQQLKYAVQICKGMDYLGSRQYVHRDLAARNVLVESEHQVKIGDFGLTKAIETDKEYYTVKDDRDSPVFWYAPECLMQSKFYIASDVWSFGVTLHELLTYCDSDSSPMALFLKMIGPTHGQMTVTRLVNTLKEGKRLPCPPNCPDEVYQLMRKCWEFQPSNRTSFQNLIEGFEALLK
Sequence of JAK3 (P52333 whole entry, species assumed): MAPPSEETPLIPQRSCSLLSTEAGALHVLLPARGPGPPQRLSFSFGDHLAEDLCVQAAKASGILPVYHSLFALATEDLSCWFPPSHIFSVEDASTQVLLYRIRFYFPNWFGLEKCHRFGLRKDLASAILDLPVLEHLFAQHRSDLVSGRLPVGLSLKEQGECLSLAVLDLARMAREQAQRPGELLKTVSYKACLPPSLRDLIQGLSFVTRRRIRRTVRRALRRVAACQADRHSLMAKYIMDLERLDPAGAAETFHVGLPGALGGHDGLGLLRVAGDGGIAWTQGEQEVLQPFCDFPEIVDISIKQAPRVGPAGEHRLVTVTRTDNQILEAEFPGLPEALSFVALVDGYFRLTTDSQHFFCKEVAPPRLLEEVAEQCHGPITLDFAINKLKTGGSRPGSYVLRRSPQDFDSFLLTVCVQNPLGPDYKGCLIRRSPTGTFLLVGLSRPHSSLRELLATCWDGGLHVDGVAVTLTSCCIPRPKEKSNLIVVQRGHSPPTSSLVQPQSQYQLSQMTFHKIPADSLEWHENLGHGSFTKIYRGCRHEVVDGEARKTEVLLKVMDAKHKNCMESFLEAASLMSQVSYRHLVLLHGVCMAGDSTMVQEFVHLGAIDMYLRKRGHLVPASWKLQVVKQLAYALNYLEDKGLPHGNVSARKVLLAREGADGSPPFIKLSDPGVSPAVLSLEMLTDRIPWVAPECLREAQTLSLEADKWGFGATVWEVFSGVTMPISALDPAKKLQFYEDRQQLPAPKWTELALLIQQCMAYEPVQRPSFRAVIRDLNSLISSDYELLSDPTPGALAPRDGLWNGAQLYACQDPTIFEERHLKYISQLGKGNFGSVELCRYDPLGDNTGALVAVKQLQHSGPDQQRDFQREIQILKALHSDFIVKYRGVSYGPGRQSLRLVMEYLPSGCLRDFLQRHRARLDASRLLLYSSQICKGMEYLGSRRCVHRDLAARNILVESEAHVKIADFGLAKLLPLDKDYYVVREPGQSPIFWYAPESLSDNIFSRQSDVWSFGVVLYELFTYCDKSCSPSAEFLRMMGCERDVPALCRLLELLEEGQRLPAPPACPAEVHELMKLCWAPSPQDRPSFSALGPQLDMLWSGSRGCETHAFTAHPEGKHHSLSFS

Q: With `CN(c1ccccc1CNc1nc(-c2cc(F)c(O)cc2C2CC2)cc2[nH]nc(C(N)=O)c12)S(C)(=O)=O` [Example 47, 6-(2-cyclopropyl-5-fluoro-4-hydroxyphenyl)-4-({2-[methyl(methylsulfonyl)amino]benzyl}amino)-1H-pyrazolo[4,3-c]pyridine-3-carboxamide] as the compound, how does the IC50 [1] read?
A: 10.6 nM

Q: What about the IC50 [2] of the same compound?
A: 54.3 nM

Q: And the IC50 [3]?
A: 320 nM

Q: What about the IC50 [4] of the same compound?
A: 28.4 nM

Q: Which results are given for `CNC(=O)c1n[nH]c2cc(-c3cc(F)c(O)cc3CC(F)(F)F)nc(NCc3nccnc3N(C)S(C)(=O)=O)c12` [Example 51, 6-[5-fluoro-4-hydroxy-2-(2,2,2-trifluoroethyl)phenyl]-N-methyl-4-[({3-[methyl(methylsulfonyl)amino]pyrazin-2-yl}methyl)amino]-1H-pyrazolo[4,3-c]pyridine-3-carboxamide]?
A: IC50 [1]: 3.5 nM; IC50 [2]: 66.9 nM; IC50 [3]: 226 nM; IC50 [4]: 20.8 nM

Q: Which IC50 [1] does the source give for `CCN(c1ncccc1CNc1nc(-c2cc(F)c(O)cc2CC(F)(F)F)cc2[nH]nc(C(N)=O)c12)S(C)(=O)=O` [Example 52, 4-[({2-[ethyl(methyl-sulfonyl)-amino]pyridin-3-yl}methyl)amino]-6-[5-fluoro-4-hydroxy-2-(2,2,2-trifluoroethyl)phenyl]-1H-pyrazolo[4,3-c]pyridine-3-carboxamide] here?
A: 2.9 nM

Q: What about the IC50 [2] of the same compound?
A: 46.3 nM

Q: What about the IC50 [3] of the same compound?
A: 109 nM

Q: What about the IC50 [4] of the same compound?
A: 15 nM

Q: With `CNC(=O)c1n[nH]c2cc(-c3cc(F)c(O)cc3CC(F)(F)F)nc(NCc3ncccc3N(C)S(C)(=O)=O)c12` [Example 55, 6-[5-Fluoro-4-hydroxy-2-(2,2,2-trifluoroethyl)phenyl]-N-methyl-4-[({3-[methyl(methylsulfonyl)amino]pyridin-2-yl}methyl)amino]-1H-pyrazolo[4,3-c]pyridine-3-carboxamide] as the compound, how does the IC50 [1] read?
A: 2.1 nM

Q: And the IC50 [2]?
A: 54 nM

Q: And the IC50 [3]?
A: 45.9 nM

Q: And the IC50 [4]?
A: 13.7 nM

Q: `CCc1cc(O)c(F)cc1-c1cc2[nH]nc(C(=O)Nc3ccc(C)nc3)c2c(NCc2ccccc2N(C)S(C)(=O)=O)n1` [Example 56, 6-(2-ethyl-5-fluoro-4-hydroxy-phenyl)-4-({2-[methyl(methylsulfonyl)amino]benzyl}amino)-N-(6-methylpyridin-3-yl)-1H-pyrazolo[4,3-c]pyridine-3-carboxamide] was tested. Which IC50 [1] did it give?
A: 6.6 nM

Q: And the IC50 [2]?
A: 135 nM

Q: What about the IC50 [3] of the same compound?
A: 19.9 nM

Q: And the IC50 [4]?
A: 26.1 nM

Q: With `CNC(=O)c1n[nH]c2cc(-c3cc(F)c(O)cc3CC(F)(F)F)nc(NCc3ccccc3N(C)S(=O)(=O)c3cn[nH]c3)c12` [Example 58, 6-(5-fluoro-4-hydroxy-2-(2,2,2-trifluoroethyl)phenyl)-N-methyl-4-((2-(N-methyl-1H-pyrazole-4-sulfonamido)benzyl)amino)-1H-pyrazolo[4,3-c]pyridine-3-carboxamide] as the compound, how does the IC50 [1] read?
A: 10.3 nM

Q: And the IC50 [2]?
A: 236 nM

Q: And the IC50 [3]?
A: 67.5 nM

Q: And the IC50 [4]?
A: 54.4 nM

Q: With `CNC(=O)c1n[nH]c2cc(-c3cc(F)c(O)cc3CC(F)(F)F)nc(NCc3ccccc3N(C)S(=O)(=O)CCOC)c12` [Example 60, 6-[5-fluoro-4-hydroxy-2-(2,2,2-trifluoroethyl)phenyl]-4-[(2-{[(2-methoxyethyl)sulfonyl](methyl)amino}benzyl)amino]-N-methyl-1H-pyrazolo[4,3-c]pyridine-3-carboxamide] as the compound, how does the IC50 [1] read?
A: 6.6 nM

Q: And the IC50 [2]?
A: 115 nM

Q: What about the IC50 [3] of the same compound?
A: 56.5 nM

Q: And the IC50 [4]?
A: 29.2 nM

Q: For `CN(c1ccccc1CNc1nc(-c2cc(F)c(O)cc2CC(F)(F)F)cc2[nH]nc(C(N)=O)c12)S(=O)(=O)c1cccnc1` [Example 61, 6-[5-fluoro-4-hydroxy-2-(2,2,2-trifluoroethyl)phenyl]-4-({2-[methyl(pyridin-3-ylsulfonyl)amino]benzyl}amino)-1H-pyrazolo[4,3-c]pyridine-3-carboxamide], which IC50 [1] is on record?
A: 7.3 nM

Q: What about the IC50 [2] of the same compound?
A: 110 nM

Q: And the IC50 [3]?
A: 52.3 nM

Q: And the IC50 [4]?
A: 30.2 nM

Q: Which IC50 [1] does the source give for `CN(c1ncccc1CNc1nc(-c2cc(F)c(O)cc2CC(F)(F)F)cc2[nH]nc(C(N)=O)c12)S(C)(=O)=O` [Example 62, 6-[5-fluoro-4-hydroxy-2-(2,2,2-trifluoroethyl)phenyl]-4-[({2-[methyl(methyl-sulfonyl)amino]pyridin-3-yl}methyl)amino]-1H-pyrazolo[4,3-c]pyridine-3-carboxamide] here?
A: 2.9 nM

Q: And the IC50 [2]?
A: 39.5 nM

Q: What about the IC50 [3] of the same compound?
A: 278 nM

Q: What about the IC50 [4] of the same compound?
A: 14.4 nM

Q: What does the source list for `CCN(c1ncccc1CNc1nc(-c2cc(F)c(O)cc2CC(F)(F)F)cc2[nH]nc(C(=O)NC)c12)S(C)(=O)=O` [Example 63, 4-[({2-[ethyl(methylsulfonyl)amino]pyridin-3-yl}methyl)amino]-6-[5-fluoro-4-hydroxy-2-(2,2,2-trifluoroethyl)phenyl]-N-methyl-1H-pyrazolo[4,3-c]pyridine-3-carboxamide]?
A: IC50 [1]: 5 nM; IC50 [2]: 82.1 nM; IC50 [3]: 107 nM; IC50 [4]: 22.5 nM

Q: What does the source list for `CN(c1ccccc1CNc1nc(-c2cc(F)c(O)cc2CC(F)(F)F)cc2[nH]nc(C(N)=O)c12)S(=O)(=O)c1ccc(N2CCOCC2)nc1` [Example 65, 6-[5-fluoro-4-hydroxy-2-(2,2,2-trifluoroethyl)phenyl]-4-{[2-(methyl{[6-(morpholin-4-yl)pyridin-3-yl]sulfonyl}amino)benzyl]amino}-1H-pyrazolo[4,3-c]pyridine-3-carboxamide]?
A: IC50 [1]: 23.3 nM; IC50 [2]: 283 nM; IC50 [3]: 126 nM; IC50 [4]: 83.8 nM

Q: Which results are given for `CN(c1ccccc1CNc1nc(-c2cc(F)c(O)cc2CC(F)(F)F)cc2[nH]nc(C(N)=O)c12)S(=O)(=O)CCCN1CCOCC1` [Example 66, 6-[5-fluoro-4-hydroxy-2-(2,2,2-trifluoroethyl)phenyl]-4-{[2-(methyl{[3-(morpholin-4-yl)propyl]sulfonyl}-amino)benzyl]amino}-1H-pyrazolo[4,3-c]pyridine-3-carboxamide]?
A: IC50 [1]: 3.5 nM; IC50 [2]: 60 nM; IC50 [3]: 81.3 nM; IC50 [4]: 14.8 nM

Q: `CNC(=O)c1n[nH]c2cc(-c3cc(F)c(O)cc3CC(F)(F)F)nc(NCc3cc(C)cnc3N(C)S(C)(=O)=O)c12` [Example 67, 6-[5-fluoro-4-hydroxy-2-(2,2,2-trifluoroethyl)phenyl]-N-methyl-4-[({5-methyl-2-[methyl(methylsulfonyl)amino]pyridin-3-yl}methyl)amino]-1H-pyrazolo[4,3-c]pyridine-3-carboxamide] was tested. Which IC50 [1] did it give?
A: 16.3 nM

Q: And the IC50 [2]?
A: 72.8 nM

Q: And the IC50 [3]?
A: 2030 nM

Q: What about the IC50 [4] of the same compound?
A: 48.2 nM

Q: Which IC50 [1] does the source give for `CNC(=O)c1n[nH]c2cc(-c3cc(F)c(O)cc3CC(F)(F)F)nc(NCc3ccccc3N(C)S(=O)(=O)c3cccnc3)c12` [Example 68, 6-[5-fluoro-4-hydroxy-2-(2,2,2-trifluoroethyl)phenyl]-N-methyl-4-({2-[methyl(pyridin-3-ylsulfonyl)amino]-benzyl}amino)-1H-pyrazolo[4,3-c]pyridine-3-carboxamide] here?
A: 14.2 nM

Q: What about the IC50 [2] of the same compound?
A: 253 nM

Q: And the IC50 [3]?
A: 72.3 nM

Q: What about the IC50 [4] of the same compound?
A: 72.7 nM

Q: Which results are given for `CNC(=O)c1n[nH]c2cc(-c3cc(F)c(O)cc3CC(F)(F)F)nc(NCc3ccccc3N(C)S(=O)(=O)c3ccc(C)nc3)c12` [Example 69, 6-[5-fluoro-4-hydroxy-2-(2,2,2-trifluoroethyl)phenyl]-N-methyl-4-[(2-{methyl[(6-methylpyridin-3-yl)sulfonyl]amino}benzyl)amino]-1H-pyrazolo[4,3-c]pyridine-3-carboxamide]?
A: IC50 [1]: 16.2 nM; IC50 [2]: 257 nM; IC50 [3]: 66.8 nM; IC50 [4]: 63.7 nM

Q: Which results are given for `Cc1ccc(S(=O)(=O)N(C)c2ccccc2CNc2nc(-c3cc(F)c(O)cc3CC(F)(F)F)cc3[nH]nc(C(N)=O)c23)cn1` [Example 70, 6-[5-fluoro-4-hydroxy-2-(2,2,2-trifluoroethyl)phenyl]-4-[(2-{methyl[(6-methylpyridin-3-yl)sulfonyl]amino}benzyl)amino]-1H-pyrazolo[4,3-c]pyridine-3-carboxamide]?
A: IC50 [1]: 12 nM; IC50 [2]: 208 nM; IC50 [3]: 79.4 nM; IC50 [4]: 52.4 nM

Q: What does the source list for `CCN(c1ncc(Cl)cc1CNc1nc(-c2cc(F)c(O)cc2CC(F)(F)F)cc2[nH]nc(C(N)=O)c12)S(C)(=O)=O` [Example 71, 4-[({5-chloro-2-[ethyl(methylsulfonyl)amino]pyridin-3-yl}methyl)amino]-6-[5-fluoro-4-hydroxy-2-(2,2,2-trifluoroethyl)phenyl]-1H-pyrazolo[4,3-c]pyridine-3-carboxamide]?
A: IC50 [1]: 44.1 nM; IC50 [2]: 359 nM; IC50 [3]: 2750 nM; IC50 [4]: 156 nM

Q: What does the source list for `CN(c1ncc(Cl)cc1CNc1nc(-c2cc(F)c(O)cc2CC(F)(F)F)cc2[nH]nc(C(N)=O)c12)S(C)(=O)=O` [Example 72, 4-[({5-chloro-2-[methyl(methylsulfonyl)amino]pyridin-3-yl}methyl)amino]-6-[5-fluoro-4-hydroxy-2-(2,2,2-trifluoroethyl)phenyl]-1H-pyrazolo[4,3-c]pyridine-3-carboxamide]?
A: IC50 [1]: 44.8 nM; IC50 [2]: 198 nM; IC50 [3]: 3450 nM; IC50 [4]: 135 nM

Q: With `CCc1cc(O)c(F)cc1-c1cc2[nH]nc(C(=O)NC)c2c(NCc2ccccc2N(C)S(N)(=O)=O)n1` [Example 73, 6-(2-ethyl-5-fluoro-4-hydroxyphenyl)-N-methyl-4-({2-[methyl(sulfamoyl)-amino]benzyl}amino)-1H-pyrazolo[4,3-c]pyridine-3-carboxamide] as the compound, how does the IC50 [1] read?
A: 5.4 nM

Q: And the IC50 [2]?
A: 80.9 nM

Q: What about the IC50 [3] of the same compound?
A: 33.9 nM

Q: What about the IC50 [4] of the same compound?
A: 18.8 nM
